Experimental data taken from patent US20190000850A1, “COMBINATION CANCER THERAPY” (The Regents of the University of California, priority 2015, published 2019).
“Also recorded” adds a separate entry of the source.

Key:
leukemia cell growth = assay: IC50 (cytotoxicity assay) of RNR inhibitors, Table 1; type: cell-based; conditions: 3-AP: cell type independent
Description: (§1) Cells were plated in a 384-well plate (1,000 cells/well for suspension cell lines and 500 cells/well for adherent cell lines in 30 μL). For suspension cell lines, the plate was incubated in 37° C. for 1 h to let the cells settle. For adherent cell lines, the plate was incubated overnight to allow the cells to seed. During incubation, drugs were diluted to desired concentration by serial dilution, vehicle condition was created by adding equivalent amount of DMSO. After incubation, 10 μL of diluted drugs were added to each well, and incubated for 72 h. After incubation, Cell TiterGlo reagent was added to each well according to manufacturer's instructions (Promega, CellTiter-Glo® Luminescent Cell Viability Assay). The plates were shaken for 2 min and incubated in dark for 8 min. Luminescence readings were obtained with luminometer (Molecular devices, SpectraMax).

[1] = Solubility study in phosphate buffer solution; type: physicochemical; conditions: aqueous buffer
CEM cells [2] = assay: Mass spectrometric assay of de novo (RNR) and salvage (dCK) contribution to dCTP and DNA-C; type: cell-based
Description: To analyze the differential utilization of de novo and nucleotide biosynthetic salvage pathways, cultured cells were incubated with stable isotope labeled DNA precursors. […] Extracted dNTP and DNA were analyzed in a triple quadrupole mass spectrometer (QQQ) using multiple reaction monitoring (MRM). The first (Q1) and third (Q3) quadrupoles function as mass filters while the second (Q2) quadrupole serves as a collision chamber. […] In Q2, the glycosidic bond of the selected dC is cleaved, releasing a protonated nucleobase (NB) fragment and a neutral deoxyribose (dR) molecule. The m/z specific NB fragments from dC is separated in Q3 and detected to generate ion chromatograms. […] Each identifier corresponded to a specific biosynthetic pathway and is defined as [x;y], where “x” is the number of heavy isotope-labeled atoms in NB and “y” is the number of heavy isotope atoms in dR. […] According to current biochemical maps of nucleotide metabolism, the [7;5] identifier can only arise from salvaging [U-^13C9,^15N3]dC into newly synthesized DNA. In contrast, a dC with a [0,5] identifier is a product of the de novo pathway. The ratio of the peak areas in the ion chromatograms of salvage [7;5] and de novo [0;5] identifiers describes the relative contributions of the two biosynthetic routes to the dCTP pool used for DNA replication.
(§4) The cells were incubated for 18 h or as indicated in the text before samples collection and processing.
Genomic DNA was extracted using the Quick-gDNA MiniPrep kit (Zymo Research, D3021) and hydrolyzed to nucleosides using the DNA Degradase Plus kit (Zymo Research, E2021) following manufacturer-supplied instructions. In the final step of DNA extraction, 50 μL of water was used to elute the DNA. A nuclease premix solution was prepared by mixing 10× buffer, DNA degradase Plus™ and water in the ratio of 2.5/1/1.5 (v/v/v). DNA hydrolysis reaction was prepared in mass spec vials by mixing 5 μL of the nuclease premix solution (5 U of enzyme) and 20 μL of eluted genomic DNA, the total volume becomes 25 μL. The samples were tapped and flicked downward prior to overnight before incubation at 37° C.
Cells were collected into microcentrifuge tube and centrifuged (450×g, 4 min, 4° C.). The supernatant was carefully aspirated. The cells were washed twice by the addition of 1 mL of cold PBS and centrifugation (450×g, 4 min 4° C.). PBS washes were aspirated. Thereafter, cells were lysed in 40 μL of 70% methanol/water (v/v), vortexed (30 s) and incubated on ice for 10 min. Then 40 μL of chloroform (Fisher) was added, vortexed (30 s) and incubated on ice for another 10 min. The samples were then centrifuged at max speed for 10 min at 4° C. Finally, the supernatant was transferred (≈25 μL) into a mass spec vial.
For genomic DNA and media analysis, an aliquot of DNA hydrolysis or media samples (20 μL) was injected directly onto a porous graphitic carbon column (Thermo Fisher Scientific Hypercarb, 100×2.1 mm, 5 μm particle size) equilibrated in solvent A (water/acetonitrile/formic acid, 95/5/0.2, v/v/v) and eluted (200 μL/min) with an increasing concentration of solvent B (acetonitrile/water/formic acid, 90/10/0.2, v/v/v): min/% B/flow rate (μL/min); 0/0/200, 5/0/200, 10/15/200, 20/15/200, 21/40/200, 25/50/200, 26/100/700, 30/100/700, 3I/O/700, 34/0/700, 35/0/200).

CEM cells [3] = assay: Inhibition of CEM cell growth by RNR inhibitors, 72 h; type: cell-based
Description: as §1

CEM T-ALL cells = assay: ssDNA (F7-26) and pH2A.X measurement by FACS; type: cell-based; conditions: 3-AP 500 nM; 0.5, 4 and 18 h
Description: Cells were harvested and fixed and permeabilized with cytofix/cytoperm (BD biosciences) for 15 min in dark on ice. Cells were washed and subsequently resuspended in 100 μL 1× Perm/wash buffer (BD Sciences) for 15 min on ice. Cells were washed and subsequently resuspended in 50 μL with phospho-Histone H2A.X (Ser139) antibody conjugated to fluorochrome FITC (EMD Milipore, 1:800 dilutions in perm/wash) for 20 min in dark at ambient temperature. […] Cells were harvested and fixed with ice-cold methanol:PBS (6:1) for 24 h. Staining with F7-26 monoclonal antibody (Mab) was performed according to manufacturer's instructions (EMD Milipore). Fixed cells were resuspended in 250 μL of formamide and heated in a water bath at 75° C. for 10 min. Cells were then allowed to return to room temperature and then washed with 2 ml of 1% non-fat dry milk in PBS for 15 min. Subsequently, cells were resuspended in 100 μL of anti-ssDNA Mab F7-26 (EMD Milipore, 1:10 in 5% FBS in PBS) and incubated for 45 min at room temperature. Cells were washed with PBS and stained with 100 μL of fluorescence-conjugated goat anti-mouse IgM antibody (Santa Cruz Biotechnology, 1:50) for 45 min at room temperature.

[4] = system: dCK activity in p185^BCR-ABLArf^−/− pre-B cells; assay: ^3H-FAC uptake to evaluate dCK activity; type: cell-based, mouse; conditions: after 1 h with 3-AP treatment
[5] = system: p185^BCR-ABLArf^−/− pre-B cells; assay: dCTP pool and DNA-C measurement with [U-^13C9,^15N3]dC and [U-^13C6]glucose; type: cell-based, mouse; conditions: 3, 6, 9 and 12 h treatment
Description: Therefore, p185^BCR-ABLArf^−/− pre-B cells were labeled with [U-^13C9,^15N3]dC and [U-^13C6]glucose to measure the contribution of salvage pathway via dCK and de novo pathway via RNR, respectively.
as §4

CEM-R-EYFP = assay: DNA-G biosynthesis labeling in isogenic CEM-R line; type: cell-based; conditions: 6-TG treatment
Description: (§2) We utilized an isogenic cell line, CEM-R (Owen 1992), which lacks the enzymes dCK and HPRT that are necessary for the salvage pathways for DNA-G biosynthesis. CEM-R cells were engineered to express enhanced yellow fluorescent protein (CEM-R-EYFP, a negative control) and human HPRT (CEM-R-HPRT) and were confirmed by WB. The labeled media contained […] [U-^13C6]glucose to represent the de novo contribution and 5 μM [^15N5]dG to represent salvage pathways, particularly HPRT-dependent nucleobase salvaging. CEM-R-EYFP relied exclusively on the de novo pathway for the DNA-G biosynthesis. In contrast, CEM-R-HPRT utilized both de novo and nucleobase salvage pathways nearly equally.
(§3) The pMSCV-HPRT-IRES-EYFP and pMSCV-TK1-IRES-EYFP plasmids were generated by inserting the human HPRT and TK1 coding sequence into the multiple cloning sites of the MSCV-IRES-EYFP plasmid, respectively. The pMSCV-hdCK-IRES-EYFP plasmid was generated as previously described (Laing RE 2010). Amphotropic retroviruses were generated by transient co-transfection of the MSCV retroviral plasmid and pCL-10A1 packaging plasmid into Phoenix-Ampho packaging cells. To generate EL4-EYFP, EL4-TK1, CEM-R-EYFP, CEM-R-dCK and CEM-R-HPRT lines, parental cells underwent spin-fection with the respective amphotropic retrovirus and were then sorted by flow cytometry to isolate pure populations of transduced cells. […]

CEM-R-HPRT = assay: DNA-G biosynthesis labeling in isogenic CEM-R line; type: cell-based; conditions: 6-TG treatment
Description: as §2, §3

CCRF-CEM T-ALL cells = assay: EdU pulse assay of cell cycle progression after release from G1 arrest; type: cell-based; conditions: 12 h after release from G1
Description: Following release from G1, cells progress to early, mid and late S phase (defined as S1, S2 and S3, respectively) and G2/M. By 18 h following release in drug-free media, 42.5% of cells progressed to S3. […] Thus, dCK represents a resistance mechanism to ATR inhibition.
Cells were treated with a CDK4/6 inhibitor, PD-0332991 (Selleckchem) for 18 h to arrest in G1 phase. Subsequently, cells were washed and released into fresh media containing 10% FBS to monitor the progression of synchronized cells throughout the cell cycle by flow cytometry analysis.
For measuring cell cycle progression of synchronous population of cells, cells were first arrested in G1 phase, then washed and released in treated media. Before collecting and fixing cells at various time points, cells were pulse-labeled with 10 μM EdU for 1 h, and then click-labeled with azide-Alexa Fluor 647 (Invitrogen; Click-iT EdU Flow cytometry kit) according to manufacturer's protocol. Total DNA content was assessed by staining with FxCycle-Violet (Invitrogen) at 1 μg/mL final concentration in PBS containing 2% FBS.

CEM T-ALL = assay: Cell-Titer-Glo viability assay, 72 h; type: cell-based; conditions: read-out: IC50 of VE-822
Description: as §1

PANC-1 PDAC cells = assay: Cell-Titer-Glo viability assay, 72 h; type: cell-based; conditions: Homo sapiens, PANC-1, read-out: IC50 of VE-822
Description: as §1

[6] = system: BCR-ABL p185^+/Arf^−/− pre B-ALL cells; assay: Systemic pre B-ALL model in C57BL/6 mice, bioluminescence imaging, survival, body weight; type: in vivo; conditions: VE-822 40 mg/kg orally once daily
Description: All drugs for oral administration were solubilized in Prototype 9′ (PEG-200:Transcutol:Labrasol:Tween-80 mixed in 5:3:1:1 ratio) as single agents or in combination. For i.p. administration, drugs were solubilized in PEG-400 and 1 mM Tris-HCl at a 1:1 (v:v) ratio. Dasatinib (LC Laboratories) was solubilized in 80 mM citric acid (pH 3.1, Boulos et al.) and was administered at a dose of 10 mg/kg by oral gavage. 2×10^5 luciferase expressing p185 cells were injected intravenously into C57BL/6 female mice for leukemia induction. All drugs were administered starting 6 or, 7 days after intravenous cell inoculation, when animals had developed a significant leukemic burden as monitored by bioluminescence imaging (IVIS Bioluminescence Imaging scanner). Dosing schedules are indicated in the text and figure legends. Mice were observed daily; those that became moribund during the trials (paralysis of hind limbs, significant body weight loss) were sacrificed immediately. Kaplan-Meier curves and Bioluminescence quantifications were generated using GraphPad Prism (v6.0f for Mac).
Mice were anesthetized with 2% isoflurane followed by an intraperitoneal injection of 50 μL (50 mg/ml) substrate luciferin. Mice were imaged with IVIS Bioluminescence Imaging scanner after 10 minutes after luciferin administration. […]

[7] = system: Chk1 and Claspin phosphorylation in CEM T-ALL cells; assay: Phosphoproteomics after G1 release; type: cell-based, human; conditions: with and without DI-82; 6 and 12 h after G1 release
Description: Cells were treated with a CDK4/6 inhibitor, PD-0332991 (Selleckchem) for 18 h to arrest in G1 phase. Cells were then washed twice with PBS and released in fresh media with treatment at a density of 0.5×10^6 cells/ml. Cells were collected at time point 6 and 12 h and solubilized using 0.5% sodium deoxycholate, 12 mM sodium lauryl sarcosine, and 50 mM triethylammonium bicarbonate pH 8.0 with 1 mL per 5×10^7 cells with trituration and vortexing. Cell lysates were heated at 95° C. for 5 min and water bath sonicated at RT for 5 min. Bicinchoninic acid protein assay (Pierce) was performed to determine protein concentration. […] Light, medium, and heavylabeled peptides were mixed 1:1:1, diluted with 0.1% formic acid to a final concentration of 3% acetonitrile and analyzed using 180 min data-dependent nLC-MS/MS on Thermo Orbitrap XL as later discussed. […] 5 uL of each SCX fraction was analyzed using 180 min data-dependent reverse-phase nLC-MS/MS on Thermo Orbitrap XL equipped with Eksigent Spark autosampler, Eksigent 2D nanoLC, and Phoenix ST Nimbus dual column source. […] Peptides were analyzed over 180 min linear gradient of 0-40% mobile phase B (97% acetonitrile, 3% dimethylsulfoxide, and 0.1% formic acid) at 300 nL/min. […]

ATM = ATM (Homo sapiens, UniProt Q13315); conditions: cited from earlier work
ATM, sequence (Q13315 whole entry, species assumed): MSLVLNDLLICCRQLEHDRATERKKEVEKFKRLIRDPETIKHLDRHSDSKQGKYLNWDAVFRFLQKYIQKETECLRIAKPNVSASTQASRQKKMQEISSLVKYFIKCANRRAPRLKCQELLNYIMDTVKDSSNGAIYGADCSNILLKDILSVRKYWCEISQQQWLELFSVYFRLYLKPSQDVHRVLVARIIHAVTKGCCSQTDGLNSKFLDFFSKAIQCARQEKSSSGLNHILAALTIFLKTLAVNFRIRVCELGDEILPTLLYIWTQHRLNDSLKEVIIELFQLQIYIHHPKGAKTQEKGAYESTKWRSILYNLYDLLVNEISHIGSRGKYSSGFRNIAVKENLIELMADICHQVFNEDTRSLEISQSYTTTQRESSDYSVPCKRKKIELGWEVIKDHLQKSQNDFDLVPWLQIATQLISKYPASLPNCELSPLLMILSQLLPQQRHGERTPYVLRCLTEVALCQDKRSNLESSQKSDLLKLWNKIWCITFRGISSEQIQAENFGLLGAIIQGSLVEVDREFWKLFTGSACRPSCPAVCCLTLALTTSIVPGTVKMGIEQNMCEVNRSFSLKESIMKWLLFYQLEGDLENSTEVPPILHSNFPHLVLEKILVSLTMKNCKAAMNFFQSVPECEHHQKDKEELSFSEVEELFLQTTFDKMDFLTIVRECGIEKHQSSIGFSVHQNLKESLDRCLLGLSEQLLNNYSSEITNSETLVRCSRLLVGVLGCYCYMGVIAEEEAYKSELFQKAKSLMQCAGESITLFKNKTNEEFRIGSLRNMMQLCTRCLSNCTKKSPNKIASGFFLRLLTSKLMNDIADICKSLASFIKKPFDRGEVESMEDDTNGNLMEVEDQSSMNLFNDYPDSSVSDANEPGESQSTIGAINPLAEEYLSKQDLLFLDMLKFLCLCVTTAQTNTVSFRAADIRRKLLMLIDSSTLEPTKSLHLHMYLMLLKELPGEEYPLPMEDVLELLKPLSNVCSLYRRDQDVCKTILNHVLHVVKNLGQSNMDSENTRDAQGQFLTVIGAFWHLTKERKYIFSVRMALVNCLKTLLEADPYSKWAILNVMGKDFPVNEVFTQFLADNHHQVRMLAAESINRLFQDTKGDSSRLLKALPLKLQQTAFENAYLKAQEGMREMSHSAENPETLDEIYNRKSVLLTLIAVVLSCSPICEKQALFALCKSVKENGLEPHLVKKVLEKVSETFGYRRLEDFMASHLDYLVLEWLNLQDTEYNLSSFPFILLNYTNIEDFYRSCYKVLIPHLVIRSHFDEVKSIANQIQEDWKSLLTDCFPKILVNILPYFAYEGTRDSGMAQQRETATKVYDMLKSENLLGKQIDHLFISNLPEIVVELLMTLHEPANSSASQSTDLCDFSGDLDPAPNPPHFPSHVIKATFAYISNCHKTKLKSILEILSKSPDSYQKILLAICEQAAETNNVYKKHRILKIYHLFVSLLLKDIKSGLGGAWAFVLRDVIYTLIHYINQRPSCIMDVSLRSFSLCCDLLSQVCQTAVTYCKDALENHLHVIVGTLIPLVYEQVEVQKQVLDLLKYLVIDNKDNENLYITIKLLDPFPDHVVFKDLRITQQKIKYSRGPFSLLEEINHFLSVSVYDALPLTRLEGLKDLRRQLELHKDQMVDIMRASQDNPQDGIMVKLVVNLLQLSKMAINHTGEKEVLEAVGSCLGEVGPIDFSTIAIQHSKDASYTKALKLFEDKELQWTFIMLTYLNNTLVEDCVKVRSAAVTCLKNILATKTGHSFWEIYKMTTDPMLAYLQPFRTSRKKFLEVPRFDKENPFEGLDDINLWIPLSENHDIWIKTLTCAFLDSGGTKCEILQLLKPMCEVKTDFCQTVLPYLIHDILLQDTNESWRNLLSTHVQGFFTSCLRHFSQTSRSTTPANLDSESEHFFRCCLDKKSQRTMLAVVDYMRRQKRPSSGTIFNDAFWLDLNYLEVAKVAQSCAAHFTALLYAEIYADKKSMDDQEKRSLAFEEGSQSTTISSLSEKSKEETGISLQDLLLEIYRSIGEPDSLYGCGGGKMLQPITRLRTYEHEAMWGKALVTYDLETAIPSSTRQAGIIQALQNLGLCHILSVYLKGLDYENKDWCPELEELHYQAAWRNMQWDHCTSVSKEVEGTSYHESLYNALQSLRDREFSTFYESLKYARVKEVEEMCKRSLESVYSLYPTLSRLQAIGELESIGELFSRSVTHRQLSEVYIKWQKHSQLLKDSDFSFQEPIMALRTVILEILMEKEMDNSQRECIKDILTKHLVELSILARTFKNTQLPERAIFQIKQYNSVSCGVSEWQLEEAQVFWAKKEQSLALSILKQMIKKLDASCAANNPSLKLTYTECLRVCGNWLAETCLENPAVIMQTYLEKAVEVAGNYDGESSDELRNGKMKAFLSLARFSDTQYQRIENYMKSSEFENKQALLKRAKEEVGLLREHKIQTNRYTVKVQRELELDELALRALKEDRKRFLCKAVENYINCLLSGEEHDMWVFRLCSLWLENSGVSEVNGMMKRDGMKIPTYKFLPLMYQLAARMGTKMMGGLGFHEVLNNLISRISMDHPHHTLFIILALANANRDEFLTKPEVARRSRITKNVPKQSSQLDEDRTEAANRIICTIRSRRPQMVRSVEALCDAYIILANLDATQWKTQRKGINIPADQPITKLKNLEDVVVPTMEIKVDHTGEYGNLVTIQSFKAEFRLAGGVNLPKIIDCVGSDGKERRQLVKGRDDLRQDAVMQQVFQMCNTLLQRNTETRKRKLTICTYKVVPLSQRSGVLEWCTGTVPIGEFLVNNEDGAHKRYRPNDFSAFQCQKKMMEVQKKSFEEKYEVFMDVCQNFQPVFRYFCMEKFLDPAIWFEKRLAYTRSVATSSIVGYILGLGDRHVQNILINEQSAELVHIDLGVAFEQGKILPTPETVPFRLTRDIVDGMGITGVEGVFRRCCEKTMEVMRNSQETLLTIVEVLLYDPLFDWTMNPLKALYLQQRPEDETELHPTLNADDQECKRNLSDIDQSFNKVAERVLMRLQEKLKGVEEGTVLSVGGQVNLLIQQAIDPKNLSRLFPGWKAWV

NC(=S)N/N=C/c1ncccc1N [3-AP, 3-aminopyridine-2-carboxyaldehyde-thiosemicarbazone]
IC50 (leukemia cell growth): 1.31 µM
solubility [1]: < 300 µg/mL
effect on de novo dCTP pool (CEM cells [2]; 3-AP at 500 nM, 18 h): did not affect
increase in salvage dCTP pool (CEM cells [2]; 3-AP at 500 nM, 18 h): 2 fold
IC50 lower than the other RNR inhibitors (dT, GaM, HU) (CEM cells [3]): 50 to 150 fold
RS and DNA damage biomarker expression (ssDNA, pH2A.X), words (CEM T-ALL cells): minimally induced
increase in ^3H-FAC uptake [4]: ~2.5 fold
dCTP pool [5]: increased their dCTP pool

Nc1nc2nc[nH]c2c(=S)[nH]1 [6-thioguanine]
DNA-G biosynthesis (CEM-R-EYFP): remained unaffected
decrease of de novo and salvage pathway labeling of DNA-G (CEM-R-HPRT): ~10 fold

CNCc1ccc(-c2cc(-c3nc(-c4ccc(S(=O)(=O)C(C)C)cc4)cnc3N)on2)cc1 [VE-822]
decrease in the number of cells in S2 (CCRF-CEM T-ALL cells): 16%
effect on dCTP pool levels compared to untreated (CEM cells [2]; G1 released CEM cells): did not significantly impact
total DNA-C labeling, less than untreated controls (CEM cells [2]; G1 released CEM cells): 30%
IC50 (CEM T-ALL): ~0.3 µM
IC50 (PANC-1 PDAC cells): 3 µM
efficacy of single agent therapy in vivo [6]: not capable of eradicating p185 cells in vivo; also recorded: marginally efficacious
phosphorylation of Chk1 and Claspin compared to untreated cells [7]: decreased phosphorylation
IC50 (ATM): 34 µM
